Our source for the IC50 and EC50 values is US20240043427A1 (Gilead Sciences, Inc., priority 2020, published 2024).

A value given as a limit tells only on which side of the number the result lay.

For test [1], the target named is T1, CD73 (Homo sapiens (Human), UniProt P21589). Format: biochemical. To be noted: 1 mM NaH2PO4 in enzyme buffer, CD73 0.3 nM, AMP 15 uM.
The target of test [2] is T1, CD73. Briefly: MDA-MB-231 Cell Based CD73 Activity Assay (DMEM). Conditions: MDA-MB-231-GFP cells, DMEM medium with 10% human plasma, 200 uM AMP.

T1 sequence (P21589 27-574): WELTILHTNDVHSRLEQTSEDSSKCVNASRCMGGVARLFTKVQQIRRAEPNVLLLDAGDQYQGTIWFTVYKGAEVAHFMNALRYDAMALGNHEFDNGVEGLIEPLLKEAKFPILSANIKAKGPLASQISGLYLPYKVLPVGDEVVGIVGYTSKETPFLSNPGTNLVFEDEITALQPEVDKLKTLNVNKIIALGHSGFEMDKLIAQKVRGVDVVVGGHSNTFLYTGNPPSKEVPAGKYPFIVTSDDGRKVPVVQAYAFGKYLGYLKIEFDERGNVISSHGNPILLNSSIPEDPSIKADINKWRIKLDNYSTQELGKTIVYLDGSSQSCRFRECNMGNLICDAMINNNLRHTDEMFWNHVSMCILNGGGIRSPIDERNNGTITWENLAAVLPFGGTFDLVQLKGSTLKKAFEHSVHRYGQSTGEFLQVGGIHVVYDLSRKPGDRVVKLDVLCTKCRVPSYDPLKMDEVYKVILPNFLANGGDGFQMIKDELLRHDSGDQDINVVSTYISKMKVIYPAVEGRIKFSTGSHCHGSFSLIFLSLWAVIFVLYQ

Turning to `O=c1[nH]cc(-c2cc([C@H]3C[C@@H]3c3ccc(OC(F)F)nc3)c3nccn3n2)c(=O)[nH]1` [Example 140, 5-(8-((1S,2S)-2-(6-(difluoromethoxy)pyridin-3-yl)cyclopropyl)imidazo[1,2-b]pyridazin-6-yl)pyrimidine-2,4(1H,3H)-dione], the IC50 (commonly the concentration that inhibits the measured activity by half) at CD73 [1] was 1.68 nM. Moreover, on CD73 [2], the concentration for a half-maximal effect (EC50) (commonly the concentration that produces a half-maximal response) was 5.25 nM.

In turn, `O=C(Nc1ccccc1F)OC1CN(c2cc(-c3c[nH]c(=O)[nH]c3=O)nn3ccnc23)CC1(F)F` (stereo not shown) [Example 233, 1-(6-(2,4-dioxo-1,2,3,4-tetrahydropyrimidin-5-yl)imidazo[1,2-b]pyridazin-8-yl)-4,4-difluoropyrrolidin-3-yl (2-fluorophenyl)carbamate] registered an IC50 on CD73 [1] of 1.17 nM. The compound also registered a 50% effective concentration (EC50) on CD73 [2] of 0.8 nM.

`O=c1[nH]cc(-c2cc([C@H]3C[C@@H]3c3ccc4nc5n(c4c3)C(C(F)(F)F)CC5)c3nccn3n2)c(=O)[nH]1` (mixture of isomers) [Example 616, 5-(8-((1S,2S)-2-(1-(trifluoromethyl)-2,3-dihydro-1H-benzo[d]pyrrolo[1,2-a]imidazol-7-yl)cyclopropyl)imidazo[1,2-b]pyridazin-6-yl)pyrimidine-2,4(1H,3H)-dione] returned an IC50 on CD73 [1] of 2.3 nM. Moreover, the EC50 at CD73 [2] was 0.2 nM.

Take `CC1(C)CN(c2cc(-c3c[nH]c(=O)[nH]c3=O)nc3ccnn23)CC1(F)F` [Example 216, 5-(7-(3,3-difluoro-4,4-dimethylpyrrolidin-1-yl)pyrazolo[1,5-a]pyrimidin-5-yl)pyrimidine-2,4(1H,3H)-dione]: on CD73 [1], it took 8.01 nM to reach half-maximal inhibition (IC50). On CD73 [2], the 50% effective concentration (EC50) was determined as 31.7 nM.

`CC(C)(C)C#Cc1cc(-c2c[nH]c(=O)[nH]c2=O)nn2ccnc12` [Example 686, 5-(8-(3,3-dimethylbut-1-yn-1-yl)imidazo[1,2-b]pyridazin-6-yl)pyrimidine-2,4(1H,3H)-dione] gave a half-maximal inhibitory concentration (IC50) on CD73 [1] of 45 nM. For the same compound, the EC50 at CD73 [2] was 285 nM.

At CD73 [1], `O=c1[nH]cc(-c2cc([C@H]3C[C@@H]3c3cc4c(cn3)cnn4CC(F)(F)F)c3nccn3n2)c(=O)[nH]1` [Example 636, 5-(8-((1S,2S)-2-(1-(2,2,2-trifluoroethyl)-1H-pyrazolo[4,3-c]pyridin-6-yl)cyclopropyl)imidazo[1,2-b]pyridazin-6-yl)pyrimidine-2,4(1H,3H)-dione] came in with an IC50 of 0.34 nM. This compound had a half-maximal effective concentration (EC50) at CD73 [2] of 0.13 nM.

In the case of `O=c1[nH]cc(-c2cc(N3CC4CCC3CC4)c3nccn3n2)c(=O)[nH]1` [Example 647, 5-(8-(2-azabicyclo[2.2.2]octan-2-yl)imidazo[1,2-b]pyridazin-6-yl)pyrimidine-2,4(1H,3H)-dione], inhibition against CD73 [1] was half-maximal at 129 nM (IC50). This compound registered a concentration giving a half-maximal response (EC50) at CD73 [2] of 234 nM.

For `CC(=O)NC1CN(c2cc(-c3c[nH]c(=O)[nH]c3=O)nn3ccnc23)CC1(F)F` (stereo not shown) [Example 205, N-[1-[6-(2,4-dioxo-1H-pyrimidin-5-yl)imidazo[1,2-b]pyridazin-8-yl]-4,4-difluoro-pyrrolidin-3-yl]acetamide], half-maximal inhibition against CD73 [1] (IC50) required 4.42 nM. In addition, the concentration giving a half-maximal response (EC50) at CD73 [2] is 16 nM.

As for `Cc1nc2ccc([C@H]3C[C@@H]3c3cc(-c4c[nH]c(=O)[nH]c4=O)nn4ccnc34)cc2s1` (racemic) [Example 570, 5-(8-((1S,2S)-2-(2-methylbenzo[d]thiazol-6-yl)cyclopropyl)imidazo[1,2-b]pyridazin-6-yl)pyrimidine-2,4(1H,3H)-dione], the half-maximal inhibitory concentration (IC50) at CD73 [1] was found to be 0.8 nM. The compound also returned an EC50 on CD73 [2] of 0.84 nM.

As for `O=c1[nH]cc(-c2cc(N3CCCCCC3)c3nccn3n2)c(=O)[nH]1` [Example 483, 5-(8-(azepan-1-yl)imidazo[1,2-b]pyridazin-6-yl)pyrimidine-2,4(1H,3H)-dione], the IC50 on CD73 [1] is > 250 nM. The compound further showed a half-maximal effective concentration (EC50) at CD73 [2] of 566 nM.

On to `O=c1[nH]cc(-c2cc(N3C[C@H](Oc4ccccn4)C(F)(F)C3)c3nccn3n2)c(=O)[nH]1` [Example 537, (S)-5-(8-(3,3-difluoro-4-(pyridin-2-yloxy)pyrrolidin-1-yl)imidazo[1,2-b]pyridazin-6-yl)pyrimidine-2,4(1H,3H)-dione], for which, on CD73 [1], half-maximal inhibition (IC50) required 0.42 nM. Also, the response on CD73 [2] was half-maximal at 2.09 nM (EC50).

Consider `O=c1[nH]cc(-c2cc([C@H]3C[C@@H]3c3ccc(C(F)F)cc3)n3nccc3n2)c(=O)[nH]1` [Example 215, 5-(7-((1S,2S)-2-(4-(difluoromethyl)phenyl)cyclopropyl)pyrazolo[1,5-a]pyrimidin-5-yl)pyrimidine-2,4(1H,3H)-dione], for which the IC50 against CD73 [1] was 1.41 nM. The same compound gave an EC50 at CD73 [2] of 12.1 nM.

For `O=c1[nH]cc(-c2cc([C@H]3C[C@@H]3c3ccc4c(cnn4CC(F)(F)F)c3)c3nccn3n2)c(=O)[nH]1` [Example 316, 5-(8-((1S,2S)-2-(1-(2,2,2-trifluoroethyl)-1H-indazol-5-yl)cyclopropyl)imidazo[1,2-b]pyridazin-6-yl)pyrimidine-2,4(1H,3H)-dione], at CD73 [1], half-maximal inhibition (IC50) required 0.65 nM. This compound yielded an EC50 on CD73 [2] of 1.21 nM.

In the case of `CC1(C)CN(c2cc(-c3c[nH]c(=O)[nH]c3=O)nn3cc(C4CC4)nc23)CC1(F)F` [Example 145, 5-(2-cyclopropyl-8-(3,3-difluoro-4,4-dimethylpyrrolidin-1-yl)imidazo[1,2-b]pyridazin-6-yl)pyrimidine-2,4(1H,3H)-dione], on CD73 [1], the IC50 was 20.5 nM. Also, on CD73 [2], the midpoint of the response, the EC50, lay at 41.7 nM.

As for `O=c1[nH]cc(-c2cc(N3C[C@@H](Oc4ccc(OC(F)F)cn4)C(F)(F)C3)c3nccn3n2)c(=O)[nH]1` [Example 332, (R)-5-(8-(4-((5-(difluoromethoxy)pyridin-2-yl)oxy)-3,3-difluoropyrrolidin-1-yl)imidazo[1,2-b]pyridazin-6-yl)pyrimidine-2,4(1H,3H)-dione], the midpoint of inhibition against CD73 [1], the IC50, lay at 8.61 nM. Besides, at CD73 [2], the response was half-maximal at 26.9 nM (EC50).

Turning to `O=C1N(CC(F)(F)C2CC2)c2cc([C@H]3C[C@@H]3c3cc(-c4c[nH]c(=O)[nH]c4=O)nn4ccnc34)ccc2C12CC2` (racemic) [Example 738, 5-(8-((1S,2S)-2-(1′-(2-cyclopropyl-2,2-difluoroethyl)-2′-oxospiro[cyclopropane-1,3′-indolin]-6′-yl)cyclopropyl)imidazo[1,2-b]pyridazin-6-yl)pyrimidine-2,4(1H,3H)-dione], the half-maximal inhibitory concentration (IC50) against CD73 [1] is 1.74 nM. This compound registered an EC50 at CD73 [2] of 0.21 nM.

As to `COC[C@@H]1CCCN1c1cc(-c2c[nH]c(=O)[nH]c2=O)nn2ccnc12` [Example 477, (S)-5-(8-(2-(methoxymethyl)pyrrolidin-1-yl)imidazo[1,2-b]pyridazin-6-yl)pyrimidine-2,4(1H,3H)-dione], the IC50 on CD73 [1] was > 250 nM. For the same compound, on CD73 [2], the EC50 worked out at 952 nM.

As for `O=c1[nH]cc(-c2cc([C@H]3C[C@@H]3c3ccc(OC(F)F)nc3)c3ncc(F)n3n2)c(=O)[nH]1` [Example 122, 5-(8-((1S,2S)-2-(6-(difluoromethoxy)pyridin-3-yl)cyclopropyl)-3-fluoroimidazo[1,2-b]pyridazin-6-yl)pyrimidine-2,4(1H,3H)-dione], at CD73 [1], the half-inhibitory concentration (IC50) worked out at 2.39 nM. Moreover, the response on CD73 [2] was half-maximal at 11.1 nM (EC50).

As to `COC1(C(F)(F)F)CCN(c2cc(-c3c[nH]c(=O)[nH]c3=O)nn3ccnc23)C1` (stereo not shown) [Example 189, 5-[8-[3-methoxy-3-(trifluoromethyl)pyrrolidin-1-yl]imidazo[1,2-b]pyridazin-6-yl]-1H-pyrimidine-2,4-dione], inhibition on CD73 [1] was half-maximal at 18.1 nM (IC50). The same compound registered an EC50 on CD73 [2] of 49 nM.

At CD73 [1], `CNC(=O)c1cccc(C2CCN(c3cc(-c4c[nH]c(=O)[nH]c4=O)nn4ccnc34)C2)c1` (stereo not shown) [Example 269, 3-(1-(6-(2,4-dioxo-1,2,3,4-tetrahydropyrimidin-5-yl)imidazo[1,2-b]pyridazin-8-yl)pyrrolidin-3-yl)-N-methylbenzamide] gave a half-inhibitory concentration (IC50) of 3.62 nM. This compound also came in with an EC50 on CD73 [2] of 27 nM.

Turning to `CC1(C)C(=O)N(CC(F)(F)F)c2cc([C@H]3C[C@@H]3c3cc(-c4c[nH]c(=O)[nH]c4=O)nn4ccnc34)ncc21` [Example 700, 5-(8-((1S,2S)-2-(3,3-dimethyl-2-oxo-1-(2,2,2-trifluoroethyl)-2,3-dihydro-1H-pyrrolo[3,2-c]pyridin-6-yl)cyclopropyl)imidazo[1,2-b]pyridazin-6-yl)pyrimidine-2,4(1H,3H)-dione], inhibition on CD73 [1] was half-maximal at 4.37 nM (IC50). The compound also gave an EC50 on CD73 [2] of 0.54 nM.

Regarding `O=c1[nH]cc(-c2cc(N3CCC(C(F)(F)F)(C(F)(F)F)C3)c3nccn3n2)c(=O)[nH]1` [Example 353, 5-(8-(3,3-bis(trifluoromethyl)pyrrolidin-1-yl)imidazo[1,2-b]pyridazin-6-yl)pyrimidine-2,4(1H,3H)-dione], on CD73 [1], the half-inhibitory concentration (IC50) worked out at 69.6 nM. For the same compound, at CD73 [2], a half-maximal effect (EC50) was put at 109 nM.

Turning to `O=c1[nH]cc(-c2cc([C@H]3C[C@@H]3c3ccc4c(C(F)(F)F)nc(CC(F)(F)F)n4c3)c3nccn3n2)c(=O)[nH]1` (racemic) [Example 609, 5-(8-((1S,2S)-2-(3-(2,2,2-trifluoroethyl)-1-(trifluoromethyl)imidazo[1,5-a]pyridin-6-yl)cyclopropyl)imidazo[1,2-b]pyridazin-6-yl)pyrimidine-2,4(1H,3H)-dione], on CD73 [1], the 50% inhibitory concentration (IC50) worked out at 2.36 nM. Also, the half-maximal effective concentration (EC50) on CD73 [2] amounted to 0.39 nM.

Take `CC1(C)C(=O)N(CC(F)(F)F)c2cc([C@H]3C[C@@H]3c3cc(-c4c[nH]c(=O)[nH]c4=O)nn4ccnc34)ccc21` [Example 703, 5-(8-((1S,2S)-2-(3,3-dimethyl-2-oxo-1-(2,2,2-trifluoroethyl)indolin-6-yl)cyclopropyl)imidazo[1,2-b]pyridazin-6-yl)pyrimidine-2,4(1H,3H)-dione]: 1.24 nM corresponded to half-maximal inhibition at CD73 [1] (IC50). The same compound showed an EC50 at CD73 [2] of 0.14 nM.

On CD73 [1], `O=c1[nH]cc(-c2cc(N3C[C@@H](Oc4ccc(OC(F)(F)F)cn4)C(F)(F)C3)c3nccn3n2)c(=O)[nH]1` [Example 334, (R)-5-(8-(3,3-difluoro-4-((5-(trifluoromethoxy)pyridin-2-yl)oxy)pyrrolidin-1-yl)imidazo[1,2-b]pyridazin-6-yl)pyrimidine-2,4(1H,3H)-dione] showed a concentration for half-maximal inhibition (IC50) of 24.4 nM. Moreover, it took 118 nM to reach a half-maximal effect on CD73 [2] (EC50).

Compound `CC1(C)CN(c2cc(-c3c[nH]c(=O)[nH]c3=O)nc3c(Cl)cnn23)CC1(F)F` [Example 220, 5-(3-chloro-7-(3,3-difluoro-4,4-dimethylpyrrolidin-1-yl)pyrazolo[1,5-a]pyrimidin-5-yl)pyrimidine-2,4(1H,3H)-dione] showed a half-inhibitory concentration (IC50) on CD73 [1] of 5.34 nM. For the same compound, the EC50 at CD73 [2] is 114 nM.
